Laboratory results from patent publication US10640495B2, “Heterocycle derivatives having TrkA inhibitory activity” (Shionogi & Co., Ltd., priority 2015, dated 2020).

biological target: human TrkA (Homo sapiens (Human), UniProt P04629); experiment: Human TrkA inhibition assay (Test Example 2); assay type: biochemical; details: Table 153, human TrkA inhibition; read-out: IC50
Method in brief: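 Recombinant TrkA (1 nmol/L) was preincubated 15 min at room temperature with compound in HEPES/MgCl2/DTT buffer, then reacted with FL-peptide 27 (1.5 μmol/L) and ATP (500 μmol/L) for 120 min at 37 °C. After EDTA stop, substrate phosphorylation was read by microfluidic mobility shift. IC50 came from logistic regression over 3-fold dilution series.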

Sequence of human TrkA (P04629 440-796): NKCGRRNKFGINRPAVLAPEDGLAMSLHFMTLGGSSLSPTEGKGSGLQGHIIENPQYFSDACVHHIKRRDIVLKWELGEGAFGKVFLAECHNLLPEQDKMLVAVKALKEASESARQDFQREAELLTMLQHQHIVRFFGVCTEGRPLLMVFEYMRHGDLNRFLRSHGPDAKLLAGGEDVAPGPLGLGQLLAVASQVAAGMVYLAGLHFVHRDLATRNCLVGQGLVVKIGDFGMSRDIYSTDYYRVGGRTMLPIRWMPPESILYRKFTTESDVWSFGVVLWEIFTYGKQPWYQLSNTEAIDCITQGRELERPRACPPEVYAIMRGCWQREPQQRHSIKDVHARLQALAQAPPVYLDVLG

IC50 | Compound
< 100 nM | COCCN1C[C@@H](NC(=O)Nc2c(C)c(-c3cnc(C(=O)NCC(F)(F)F)c(C)c3)nn2-c2ccccc2)[C@H](c2ccnc(F)c2)O1 (racemic) [Compound I-168]
< 100 nM | COCCN1C[C@@H](NC(=O)Nc2c(C)c(-c3cnc(C(=O)NC4CC4)c(C)c3)nn2-c2ccccc2)[C@H](c2ccnc(F)c2)O1 (racemic) [Compound I-169]
< 100 nM | COCCN1C[C@@H](NC(=O)Nc2c(C)c(-c3cnc(C(=O)NCC4CC4)c(C)c3)nn2-c2ccccc2)[C@H](c2ccnc(F)c2)O1 (racemic) [Compound I-170]
< 100 nM | COCCN1C[C@@H](NC(=O)Nc2c(C)c(-c3cnc(C(=O)NC4CCOCC4)c(C)c3)nn2-c2ccccc2)[C@H](c2ccnc(F)c2)O1 (racemic) [Compound I-171]
< 100 nM | COCCNC(=O)c1ncc(-c2nn(-c3ccccc3)c(NC(=O)N[C@@H]3CN(CCOC)O[C@H]3c3ccnc(F)c3)c2C)cc1C (racemic) [Compound I-173]
< 100 nM | COCCN1C[C@@H](NC(=O)Nc2c(C)c(-c3cnc4c(cnn4C)c3)nn2-c2ccc(F)cc2)[C@H](c2ccc(F)c(F)c2)O1 (racemic) [Compound I-174]
< 100 nM | COCCN1C[C@@H](NC(=O)Nc2c(C)c(-c3cnc4c(cnn4C)c3)nn2-c2ccc(F)c(F)c2)[C@H](c2ccc(F)c(F)c2)O1 (racemic) [Compound I-175]
< 100 nM | COCCN1C[C@@H](NC(=O)Nc2c(C)c(-c3cnc(C)c(N=S(C)(C)=O)c3)nn2-c2ccccc2)[C@H](c2ccc(F)c(F)c2)O1 (racemic) [Compound I-176]

same assay, conditions: Table 154, human TrkA inhibition; read-out: IC50

IC50 | Compound
< 100 nM | CNS(=O)(=O)c1cc(-c2nn(-c3ccccc3)c(NC(=O)N[C@@H]3CN(CCOC)O[C@H]3c3ccc(F)c(F)c3)c2C)cn(C)c1=O (racemic) [Compound I-177]
< 100 nM | CNS(=O)(=O)c1cc(-c2nn(-c3ccccc3)c(NC(=O)N[C@@H]3CN(CCOC)O[C@H]3c3ccnc(F)c3)c2C)cn(C)c1=O (racemic) [Compound I-178]
< 100 nM | COCCN1C[C@@H](NC(=O)Nc2c(C)c(-c3cnc(OC)c(C(=O)O)c3)nn2-c2ccccc2)[C@H](c2cnc(F)c(F)c2)O1 (racemic) [Compound I-179]
< 100 nM | CNC(=O)c1cc(-c2nn(-c3ccc(F)c(F)c3)c(NC(=O)N[C@@H]3CN(CCOC)O[C@H]3c3ccc(F)c(F)c3)c2C)cnc1OC (racemic) [Compound I-181]
< 100 nM | COCCN1C[C@@H](NC(=O)Nc2c(C)c(-c3cnc(OC)c(C(=O)NC4CCOCC4)c3)nn2-c2ccc(F)c(F)c2)[C@H](c2ccc(F)c(F)c2)O1 (racemic) [Compound I-182]
< 100 nM | CNC(=O)c1cc(-c2nn(-c3ccc(F)cc3)c(NC(=O)N[C@@H]3CN(CCOC)O[C@H]3c3ccc(F)c(F)c3)c2C)cnc1OC (racemic) [Compound I-183]
< 100 nM | COCCN1C[C@@H](NC(=O)Nc2c(C)c(-c3cnc(OC)c(C(=O)NC4CCOCC4)c3)nn2-c2ccc(F)cc2)[C@H](c2ccc(F)c(F)c2)O1 (racemic) [Compound I-184]
< 100 nM | COCC[C@@H]1C[C@@H](NC(=O)Nc2c(C)c(-c3ccc(N=S(C)(C)=O)nc3)nn2-c2ccccc2)[C@H](c2ccc(F)c(F)c2)O1 (racemic) [Compound I-185]
< 100 nM | COCCN1C[C@@H](NC(=O)Nc2c(C)c(-c3cnc(OC)nc3)nn2-c2ccccc2)[C@H](c2cc(F)nc(F)c2)O1 (racemic) [Compound I-187]
< 100 nM | COCCN1C[C@@H](NC(=O)Nc2c(C)c(-c3cnc4cccnc4c3)nn2-c2ccccc2)[C@H](c2ccnc(F)c2)O1 (racemic) [Compound I-188]
< 100 nM | COCCN1C[C@@H](NC(=O)Nc2c(C)c(-c3ccnc(C(=O)OC)c3)nn2-c2ccccc2)[C@H](c2ccc(F)c(F)c2)O1 (racemic) [Compound I-189]
< 100 nM | COCCN1C[C@@H](NC(=O)Nc2c(C)c(-c3ccnc(C(=O)OC)c3)nn2-c2ccccc2)[C@H](c2ccnc(F)c2)O1 (racemic) [Compound I-194]
< 100 nM | COCCN1C[C@@H](NC(=O)Nc2c(C)c(-c3ccnc(C(=O)NO)c3)nn2-c2ccccc2)[C@H](c2ccc(F)c(F)c2)O1 (racemic) [Compound I-195]
< 100 nM | CCOc1ncc(-c2nn(-c3ccccc3)c(NC(=O)N[C@@H]3CN(CCOC)O[C@H]3c3ccnc(F)c3)c2C)cn1 (racemic) [Compound I-196]
< 100 nM | COCCN1C[C@@H](NC(=O)Nc2c(C)c(-c3ccnc(C(=O)NOC)c3)nn2-c2ccccc2)[C@H](c2ccc(F)c(F)c2)O1 (racemic) [Compound I-198]
< 100 nM | COCCN1C[C@@H](NC(=O)Nc2c(C)c(-c3ccc(C(=O)OC)nc3)nn2-c2ccccc2)[C@H](c2ccc(F)c(F)c2)O1 (racemic) [Compound I-199]
< 100 nM | CCN1C[C@@H](NC(=O)Nc2c(C)c(-c3cnc4c(cnn4C)c3)nn2-c2ccccc2)[C@H](c2ccc(F)c(F)c2)O1 (racemic) [Compound I-200]
< 100 nM | Cc1c(-c2cnc3c(cnn3C)c2)nn(-c2ccccc2)c1NC(=O)N[C@@H]1CN(CC2CC2)O[C@H]1c1ccc(F)c(F)c1 (racemic) [Compound I-201]
100 to 1000 nM | Cc1c(-c2cnc3c(cnn3C)c2)nn(-c2ccccc2)c1NC(=O)N[C@@H]1CN(CC2COC2)O[C@H]1c1ccc(F)c(F)c1 (racemic) [Compound I-202]
100 to 1000 nM | Cc1c(-c2cnc3c(cnn3C)c2)nn(-c2ccccc2)c1NC(=O)N[C@@H]1CN(Cc2ccn[nH]2)O[C@H]1c1ccc(F)c(F)c1 (racemic) [Compound I-203]
100 to 1000 nM | Cc1c(-c2cnc3c(cnn3C)c2)nn(-c2ccccc2)c1NC(=O)N[C@@H]1CN(Cc2cn[nH]c2)O[C@H]1c1ccc(F)c(F)c1 (racemic) [Compound I-204]
100 to 1000 nM | Cc1c(-c2cnc3c(cnn3C)c2)nn(-c2ccccc2)c1NC(=O)N[C@@H]1CN(Cc2cnn(C)c2)O[C@H]1c1ccc(F)c(F)c1 (racemic) [Compound I-205]
100 to 1000 nM | Cc1c(-c2cnc3c(cnn3C)c2)nn(-c2ccccc2)c1NC(=O)N[C@@H]1CN(CC(C)(C)CN(C)C)O[C@H]1c1ccc(F)c(F)c1 (racemic) [Compound I-206]
< 100 nM | Cc1c(-c2cnc3c(cnn3C)c2)nn(-c2ccccc2)c1NC(=O)N[C@@H]1CN(C)O[C@H]1c1ccc(F)c(F)c1 (racemic) [Compound I-207]
< 100 nM | COCCN1C[C@@H](NC(=O)Nc2c(C)c(-c3cnc4c(c3)[nH]c(=O)n4C)nn2-c2ccccc2)[C@H](c2ccnc(F)c2)O1 (racemic) [Compound I-208]
< 100 nM | COCCN1C[C@@H](NC(=O)Nc2c(C)c(-c3ccnc(C(=O)O)c3)nn2-c2ccccc2)[C@H](c2ccnc(F)c2)O1 (racemic) [Compound I-212]
< 100 nM | COCCN1C[C@@H](NC(=O)Nc2c(C)c(-c3ccc(C(=O)O)nc3)nn2-c2ccccc2)[C@H](c2ccc(F)c(F)c2)O1 (racemic) [Compound I-214]
< 100 nM | COCC[C@@H]1C[C@@H](NC(=O)Nc2c(C)c(-c3cnc4c(c3)c(=O)n(C)n4C)nn2-c2ccccc2)[C@H](c2ccc(F)c(F)c2)O1 (racemic) [Compound I-215]

same assay, conditions: human TrkA 1 nmol/L, ATP 500 μmol/L, 120 min at 37° C.; read-out: IC50 values (TrkA phosphorylation inhibition)

IC50 | Compound
2.1 nM | COCCN1C[C@@H](NC(=O)Nc2c(C)c(-c3ccnc(C(=O)O)c3)nn2-c2ccccc2)[C@H](c2ccc(F)c(F)c2)O1 (racemic) [Compound I-190]
4 nM | CNC(=O)c1cc(-c2nn(-c3ccccc3)c(NC(=O)N[C@@H]3CN(C)O[C@H]3c3ccc(F)c(F)c3)c2C)cn(C)c1=O (racemic) [Compound I-193]
